Reference: ChEMBL document CHEMBL5316337, “Critical Role of Position 10 Residue in the Polymyxin Antimicrobial Activity” (J Med Chem, 2023)
Values after ≈ are worked out from the molar mass of the structure shown.

Assays:
Format in all cases: functional
Pseudomonas aeruginosa [1] = assay: Antibacterial activity against polymyxin-susceptible Pseudomonas aeruginosa ATCC 27853 clinical isolates assessed as reduction in bacterial growth by broth microdilution method
Pseudomonas aeruginosa [2] = assay: Antibacterial activity against Carbapenem-resistant Pseudomonas aeruginosa FADD1-PA022 clinical isolates assessed as reduction in bacterial growth by broth microdilution method
Pseudomonas aeruginosa [3] = assay: Antibacterial activity against Carbapenem-resistant Pseudomonas aeruginosa FADD1-PA001 clinical isolates assessed as reduction in bacterial growth by broth microdilution method
Pseudomonas aeruginosa [4] = assay: Antibacterial activity against polymyxin-susceptible Pseudomonas aeruginosa FADD1-PA038 clinical isolates assessed as reduction in bacterial growth by broth microdilution method
Pseudomonas aeruginosa [5] = assay: Antibacterial activity against polymyxin-susceptible Pseudomonas aeruginosa FADD1-PA025 clinical isolates assessed as reduction in bacterial growth by broth microdilution method
Acinetobacter baumannii [6] = assay: Antibacterial activity against polymyxin-susceptible Acinetobacter baumannii ATCC 19606 clinical isolates assessed as reduction in bacterial growth by broth microdilution method
Acinetobacter baumannii [7] = assay: Antibacterial activity against Carbapenem-resistant Acinetobacter baumannii FADD1-AB034 clinical isolates assessed as reduction in bacterial growth by broth microdilution method
Acinetobacter baumannii [8] = assay: Antibacterial activity against polymyxin-susceptible Acinetobacter baumannii ATCC 17978 clinical isolates assessed as reduction in bacterial growth by broth microdilution method
Acinetobacter baumannii [9] = assay: Antibacterial activity against Carbapenem-resistant Acinetobacter baumannii FADD1-AB030 clinical isolates assessed as reduction in bacterial growth by broth microdilution method
Klebsiella pneumoniae [10] = assay: Antibacterial activity against Carbapenem-resistant Klebsiella pneumoniae FADD1-KP032 clinical isolates assessed as reduction in bacterial growth by broth microdilution method
Klebsiella pneumoniae [11] = assay: Antibacterial activity against Carbapenem-resistant Klebsiella pneumoniae FADD1-KP022 clinical isolates assessed as reduction in bacterial growth by broth microdilution method
Klebsiella pneumoniae [12] = assay: Antibacterial activity against Carbapenem-resistant Klebsiella pneumoniae BM1 clinical isolates assessed as reduction in bacterial growth by broth microdilution method
Klebsiella pneumoniae [13] = assay: Antibacterial activity against polymyxin-susceptible Klebsiella pneumoniae ATCC 700721 clinical isolates assessed as reduction in bacterial growth by broth microdilution method
Klebsiella pneumoniae [14] = assay: Antibacterial activity against Carbapenem-resistant Klebsiella pneumoniae FADD1-KP065 clinical isolates assessed as reduction in bacterial growth by broth microdilution method
Enterobacter cloacae [15] = assay: Antibacterial activity against polymyxin-susceptible Enterobacter cloacae FADD1-EC006 clinical isolates assessed as reduction in bacterial growth by broth microdilution method
Enterobacter cloacae [16] = assay: Antibacterial activity against polymyxin-susceptible Enterobacter cloacae FADD1-EC001 clinical isolates assessed as reduction in bacterial growth by broth microdilution method
Enterobacter cloacae [17] = assay: Antibacterial activity against polymyxin-susceptible Enterobacter cloacae FADD1-EC003 clinical isolates assessed as reduction in bacterial growth by broth microdilution method

Structure (SMILES)	MIC (Pseudomonas aeruginosa [1]) [µg/mL]	MIC (Pseudomonas aeruginosa [2]) [µg/mL]	MIC (Pseudomonas aeruginosa [3]) [µg/mL]	MIC (Pseudomonas aeruginosa [4]) [µg/mL]	MIC (Pseudomonas aeruginosa [5]) [µg/mL]	MIC (Acinetobacter baumannii [6]) [µg/mL]	MIC (Acinetobacter baumannii [7]) [µg/mL]	MIC (Acinetobacter baumannii [8]) [µg/mL]	MIC (Acinetobacter baumannii [9]) [µg/mL]	MIC (Klebsiella pneumoniae [10]) [µg/mL]	MIC (Klebsiella pneumoniae [11]) [µg/mL]	MIC (Klebsiella pneumoniae [12]) [µg/mL]	MIC (Klebsiella pneumoniae [13]) [µg/mL]	MIC (Klebsiella pneumoniae [14]) [µg/mL]	MIC (Enterobacter cloacae [15]) [µg/mL]	MIC (Enterobacter cloacae [16]) [µg/mL]	MIC (Enterobacter cloacae [17]) [µg/mL]
CC[C@H](C)CCCCC(=O)N[C@@H](CCN)C(=O)N[C@H](C(=O)N[C@@H](CCN)C(=O)N[C@H]1CCNC(=O)[C@H](CCO)NC(=O)[C@H](CCN)NC(=O)[C@H](CCN)NC(=O)[C@H](CC(C)C)NC(=O)[C@@H](Cc2ccccc2)NC(=O)[C@H](CCN)NC1=O)[C@@H](C)O	4 (≈ 3.32 µM)	0.5 (≈ 0.415 µM)	32 (≈ 26.6 µM)	8 (≈ 6.65 µM)	2 (≈ 1.66 µM)	> 32	4 (≈ 3.32 µM)	2 (≈ 1.66 µM)	32 (≈ 26.6 µM)	2 (≈ 1.66 µM)	0.5 (≈ 0.415 µM)	4 (≈ 3.32 µM)	2 (≈ 1.66 µM)	2 (≈ 1.66 µM)	> 32	8 (≈ 6.65 µM)	2 (≈ 1.66 µM)
CC[C@H](C)CCCCC(=O)N[C@@H](CCN)C(=O)N[C@H](C(=O)N[C@@H](CCN)C(=O)N[C@H]1CCNC(=O)[C@H](C(C)(C)C)NC(=O)[C@H](CCN)NC(=O)[C@H](CCN)NC(=O)[C@H](CC(C)C)NC(=O)[C@@H](Cc2ccccc2)NC(=O)[C@H](CCN)NC1=O)[C@@H](C)O	2 (≈ 1.65 µM)	2 (≈ 1.65 µM)	2 (≈ 1.65 µM)	4 (≈ 3.29 µM)	2 (≈ 1.65 µM)	8 (≈ 6.58 µM)	4 (≈ 3.29 µM)	4 (≈ 3.29 µM)	4 (≈ 3.29 µM)	2 (≈ 1.65 µM)	1 (≈ 0.823 µM)	8 (≈ 6.58 µM)	8 (≈ 6.58 µM)	4 (≈ 3.29 µM)	8 (≈ 6.58 µM)	8 (≈ 6.58 µM)	4 (≈ 3.29 µM)
CC[C@H](C)CCCCC(=O)N[C@@H](CCN)C(=O)N[C@H](C(=O)N[C@@H](CCN)C(=O)N[C@H]1CCNC(=O)[C@H]([C@@H](C)OC)NC(=O)[C@H](CCN)NC(=O)[C@H](CCN)NC(=O)[C@H](CC(C)C)NC(=O)[C@@H](Cc2ccccc2)NC(=O)[C@H](CCN)NC1=O)[C@@H](C)O	1 (≈ 0.821 µM)	1 (≈ 0.821 µM)	8 (≈ 6.57 µM)	16 (≈ 13.1 µM)	2 (≈ 1.64 µM)	16 (≈ 13.1 µM)	4 (≈ 3.29 µM)	8 (≈ 6.57 µM)	8 (≈ 6.57 µM)	2 (≈ 1.64 µM)	1 (≈ 0.821 µM)	8 (≈ 6.57 µM)	8 (≈ 6.57 µM)	8 (≈ 6.57 µM)	32 (≈ 26.3 µM)	8 (≈ 6.57 µM)	4 (≈ 3.29 µM)
CC[C@H](C)CCCCC(=O)N[C@@H](CCN)C(=O)N[C@H](C(=O)N[C@@H](CCN)C(=O)N[C@H]1CCNC(=O)[C@H](CCSC)NC(=O)[C@H](CCN)NC(=O)[C@H](CCN)NC(=O)[C@H](CC(C)C)NC(=O)[C@@H](Cc2ccccc2)NC(=O)[C@H](CCN)NC1=O)[C@@H](C)O	1 (≈ 0.811 µM)	1 (≈ 0.811 µM)	2 (≈ 1.62 µM)	2 (≈ 1.62 µM)	2 (≈ 1.62 µM)	4 (≈ 3.24 µM)	4 (≈ 3.24 µM)	4 (≈ 3.24 µM)	2 (≈ 1.62 µM)	2 (≈ 1.62 µM)	1 (≈ 0.811 µM)	2 (≈ 1.62 µM)	4 (≈ 3.24 µM)	1 (≈ 0.811 µM)	16 (≈ 13 µM)	8 (≈ 6.49 µM)	4 (≈ 3.24 µM)
CC[C@H](C)CCCCC(=O)N[C@@H](CCN)C(=O)N[C@H](C(=O)N[C@@H](CCN)C(=O)N[C@H]1CCNC(=O)[C@H](CN)NC(=O)[C@H](CCN)NC(=O)[C@H](CCN)NC(=O)[C@H](CC(C)C)NC(=O)[C@@H](Cc2ccccc2)NC(=O)[C@H](CCN)NC1=O)[C@@H](C)O	4 (≈ 3.37 µM)	0.5 (≈ 0.421 µM)	2 (≈ 1.68 µM)	4 (≈ 3.37 µM)	2 (≈ 1.68 µM)	2 (≈ 1.68 µM)	1 (≈ 0.841 µM)	1 (≈ 0.841 µM)	2 (≈ 1.68 µM)	2 (≈ 1.68 µM)	1 (≈ 0.841 µM)	4 (≈ 3.37 µM)	> 32	1 (≈ 0.841 µM)	16 (≈ 13.5 µM)	2 (≈ 1.68 µM)	4 (≈ 3.37 µM)
CC[C@H](C)CCCCC(=O)N[C@@H](CCN)C(=O)N[C@H](C(=O)N[C@@H](CCN)C(=O)N[C@H]1CCNC(=O)[C@@H]([C@H](C)O)NC(=O)[C@H](CCN)NC(=O)[C@H](CCN)NC(=O)[C@H](CC(C)C)NC(=O)[C@@H](Cc2ccccc2)NC(=O)[C@H](CCN)NC1=O)[C@@H](C)O	32 (≈ 26.6 µM)	2 (≈ 1.66 µM)	> 32	> 32	16 (≈ 13.3 µM)	> 32	> 32	4 (≈ 3.32 µM)	> 32	> 32	> 32	> 32	> 32	> 32	> 32	> 32	> 32
